Measurements as given in ChEMBL document CHEMBL6096672, “In Silico Enabled Discovery of KAI-11101, a Preclinical DLK Inhibitor for the Treatment of Neurodegenerative Disease and Neuronal Injury” (J Med Chem, 2025).

Experiments:
[1] = Inhibition of GST-tagged DLK (1 to 520 residues)(unknown origin) using MKK4 as substrate preincubated for 60 mins followed by substrate/ATP addition measured after 30 mins by HTRF assay; parameters: species or system Homo sapiens
[2] = Inhibition of human DLK transfected in HEK293-T-REx cells assessed as decrease in JNK phosphorylation incubated for 5 hrs by HTRF assay; assay type: cell-based
CYP3A4 = CYP3A4 (Homo sapiens, UniProt P08684); experiment: Time dependent inhibition of CYP3A4 (unknown origin) at 30 uM incubated for 30 mins relative to control; assay type: ADME; conditions: read-out: TDI
[3] = Intrinsic clearance in mouse liver microsomes; assay type: ADME, Microsome; conditions: read-out: CLH
[4] = Intrinsic clearance in human liver microsomes; assay type: ADME, Microsome; conditions: read-out: CLH
[5] = Ratio of unbound drug concentration in brain to plasma of mouse at 5 mg/kg; assay type: ADME, organism-based; conditions: brain and plasma, read-out: K(p,uu,brain)

Chain of CYP3A4 (P08684 whole entry): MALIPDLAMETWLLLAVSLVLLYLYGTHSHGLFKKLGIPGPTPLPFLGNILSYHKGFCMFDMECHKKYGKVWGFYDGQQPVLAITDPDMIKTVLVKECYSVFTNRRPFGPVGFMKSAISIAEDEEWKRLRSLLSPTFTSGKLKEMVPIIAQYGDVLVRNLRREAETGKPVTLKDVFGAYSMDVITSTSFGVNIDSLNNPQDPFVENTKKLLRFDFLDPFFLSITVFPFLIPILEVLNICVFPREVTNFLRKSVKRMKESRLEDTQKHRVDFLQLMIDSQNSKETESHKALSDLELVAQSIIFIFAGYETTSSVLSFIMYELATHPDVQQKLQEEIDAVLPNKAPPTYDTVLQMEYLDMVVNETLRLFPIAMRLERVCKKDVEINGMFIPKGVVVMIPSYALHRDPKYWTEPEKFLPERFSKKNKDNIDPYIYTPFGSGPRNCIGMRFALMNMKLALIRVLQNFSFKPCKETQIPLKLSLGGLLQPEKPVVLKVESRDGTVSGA

| Structure (SMILES) | Ki [1] | IC50 [2] | inhibition at 0.5 h, 30 µM (CYP3A4) | microsomal CLint [3] | microsomal CLint [4] | Kp uu [5] |
| --- | --- | --- | --- | --- | --- | --- |
| Nc1ncc(-c2n[nH]c3cnccc23)cc1C(F)(F)F | 149 nM | – | – | – | – | – |
| Nc1ncc(-c2n[nH]c3ccsc23)cc1C(F)(F)F | 72.4 nM | – | – | – | – | – |
| CCn1nc(-c2cnc(N)c(OC(F)(F)F)c2)c2ccn([C@@H]3CCOC3)c(=O)c21 | 7.7 nM | 120 nM | – | 33 µL/min/mg | 22 µL/min/mg | – |
| CCn1nc(-c2cnc(N)c(OC(F)(F)F)c2)c2ccn(C3COC3)c(=O)c21 | 10.5 nM | 440 nM | – | 24 µL/min/mg | 9.2 µL/min/mg | 0.5 |
| CC(C)n1cc(-c2cnc(N)c(C(F)(F)F)c2)c2nc(C3CC3)ccc21 | 27 nM | – | – | – | – | – |
| Nc1ncc(-c2ccc3ncsc3n2)cc1C(F)(F)F | 416 nM | – | – | – | – | – |
| CN1CCC(c2ccc3c(-c4cnc(N)c(C(F)(F)F)c4)nc(C#N)n3c2)CC1 | 4.8 nM | 162 nM | – | – | – | – |
| Nc1ncc(-c2cc3cn[nH]c3cn2)cc1C(F)(F)F | 421 nM | – | – | – | – | – |
| Nc1ncc(-c2cn(C3CCC3)c3cccnc23)cc1C(F)(F)F | 194 nM | – | – | – | – | – |
| Nc1ncc(-c2c[nH]c3cccnc23)cc1C(F)(F)F | 194 nM | – | – | – | – | – |
| Nc1ncc(-c2cc3cn[nH]c3c(C3CC3)n2)cc1C(F)(F)F | 59 nM | – | – | – | – | – |
| CC(C)c1n[nH]c2cnc(-c3cnc(N)c(C(F)(F)F)c3)cc12 | 79 nM | – | – | – | – | – |
| Nc1ncc(-c2ncn3ccccc23)cc1C(F)(F)F | 63 nM | – | – | – | – | – |

Now those with a lower Ki [1], led by results:

| Ki [1] | IC50 [2] | inhibition at 0.5 h, 30 µM (CYP3A4) | microsomal CLint [3] | microsomal CLint [4] | Kp uu [5] | Structure (SMILES) |
| --- | --- | --- | --- | --- | --- | --- |
| 3.4 nM | 104 nM | – | 17 µL/min/mg | 13 µL/min/mg | 0.31 | Nc1ncc(-c2nn(C3CC3)c3c(=O)n(C4CCOCC4)ccc23)cc1OC(F)(F)F |
| 3 nM | 130 nM | – | 8.3 µL/min/mg | 7.9 µL/min/mg | 0.15 | CCn1nc(-c2cnc(N)c(OC(F)(F)F)c2)c2ccn(C3CCN(C4COC4)CC3)c(=O)c21 |
| 2.5 nM | 130 nM | – | 4 µL/min/mg | < 3 µL/min/mg | 0.38 | CCn1nc(-c2cnc(N)c(OC(F)(F)F)c2)c2ccn(C3CCN(C)CC3)c(=O)c21 |
| 1.9 nM | 85 nM | – | 24 µL/min/mg | 9.3 µL/min/mg | 0.43 | CCn1nc(-c2cnc(N)c(OC(F)(F)F)c2)c2ccn([C@@H]3CCOC[C@H]3OC)c(=O)c21 |
| 1.8 nM | 180 nM | – | – | – | 0.24 | CCn1nc(-c2cnc(N)c(C(F)(F)F)c2)c2ccn([C@@H]3CCOC[C@@H]3OC3CC3)c(=O)c21 |
| 1.6 nM | 84 nM | 78% | – | – | – | CCc1nc(-c2cnc(N)c(OC(F)(F)F)c2)c2ccc(C3CCOCC3)nn12 |
| 1.5 nM | 110 nM | – | 10 µL/min/mg | < 4 µL/min/mg | 0.38 | CCn1nc(-c2cnc(N)c(OC(F)(F)F)c2)c2ccn([C@@H](C)C3CC3)c(=O)c21 |
| 1.3 nM | 140 nM | – | 25 µL/min/mg | 18 µL/min/mg | 0.29 | CCn1nc(-c2cnc(N)c(OC(F)(F)F)c2)c2ccn([C@@H]3CCCOCC3)c(=O)c21 |
| 1 nM | – | – | – | – | – | CCc1nc(-c2cnc(N)c(C(F)(F)F)c2)c2ccc(C3COC3)cn12 |
| 0.92 nM | 46 nM | – | – | – | 0.5 | CCn1nc(-c2cnc(N)c(OC(F)F)c2)c2ccn([C@H]3CCOC[C@H]3OC(F)(F)F)c(=O)c21 |
| 0.77 nM | 70 nM | 81% | – | – | – | CCc1nc(-c2cnc(N)c(OC(F)(F)F)c2)c2ccc([C@H]3CC(=O)N(C)C3)cn12 |
| 0.65 nM | 35 nM | – | – | – | – | CCn1nc(-c2cnc(N)c(OC(F)F)c2)c2ccn([C@H]3CCOC[C@H]3OC3CCC3)c(=O)c21 |
| 0.58 nM | 32 nM | – | – | – | 0.15 | CCn1nc(-c2cnc(N)c(OC(F)F)c2)c2ccn([C@H]3CCOC[C@H]3OC3CC3)c(=O)c21 |
| 0.47 nM | 29 nM | 62% | – | – | – | CCc1nc(-c2cnc(N)c(OC(F)(F)F)c2)c2ccc([C@@]3(C)COCCN3C)cn12 |
